Data taken from the supplement of paper PMC8967900.

Experiments:
Experiment in all cases: selective drug sensitivity score (sDSS, relative to normal bone marrow) (sDSS (score)); higher = more potent and effective on the cell line relative to normal bone marrow cells
Conditions in all cases: 72 h
ALL-PO = tested on: ALL-PO
CCRF-CEM = tested on: CCRF-CEM
COG-LL-332h = tested on: COG-LL-332h
DND-41 = tested on: DND-41
HAL-01 = tested on: HAL-01
HPB-ALL = tested on: HPB-ALL
KARPAS-45 = tested on: KARPAS-45
KASUMI-10 = tested on: KASUMI-10
KOPN-8 = tested on: KOPN-8
LC4-1 = tested on: LC4-1
MHH-CALL-4 = tested on: MHH-CALL-4
MN-60 = tested on: MN-60
MOLT-14 = tested on: MOLT-14
MOLT-4 = tested on: MOLT-4
NALL-1 = tested on: NALL-1
NALM-6 = tested on: NALM-6
P30-OHKUBO = tested on: P30-OHKUBO
REH = tested on: REH
RPMI-8402 = tested on: RPMI-8402
TMD5 = tested on: TMD5
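Note: ALL cell lines in 384-well plates, five doses spanning 10,000-fold, each plate scaled between vehicle and 100 µmol/L benzalkonium chloride controls, sDSS an adapted area-under-curve metric.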

SMILES	selective drug sensitivity score (ALL-PO)	selective drug sensitivity score (CCRF-CEM)	selective drug sensitivity score (COG-LL-332h)	selective drug sensitivity score (DND-41)	selective drug sensitivity score (HAL-01)	selective drug sensitivity score (HPB-ALL)	selective drug sensitivity score (KARPAS-45)	selective drug sensitivity score (KASUMI-10)	selective drug sensitivity score (KOPN-8)	selective drug sensitivity score (LC4-1)	selective drug sensitivity score (MHH-CALL-4)	selective drug sensitivity score (MN-60)	selective drug sensitivity score (MOLT-14)	selective drug sensitivity score (MOLT-4)	selective drug sensitivity score (NALL-1)	selective drug sensitivity score (NALM-6)	selective drug sensitivity score (P30-OHKUBO)	selective drug sensitivity score (REH)	selective drug sensitivity score (RPMI-8402)	selective drug sensitivity score (TMD5)
O=C(/C=C\n1cnc(-c2cc(C(F)(F)F)cc(C(F)(F)F)c2)n1)NNc1ccccn1 [Verdinexor] (top concentration 1000 nM)	7.54	5.24	7.74	11.6	3.94	1.84	7.54	1.54	8.34	1.94	1.84	2.24	13.3	9.74	0.64	11.7	4.34	4.44	8.34	0.14
CCC(C)n1ncn(-c2ccc(N3CCN(c4ccc(OCC5COC(Cn6cncn6)(c6ccc(Cl)cc6Cl)O5)cc4)CC3)cc2)c1=O (stereo not given) [Itraconazole] (top concentration 5000 nM)	1.88	-1.22	2.48	6.98	2.28	5.68	6.18	-4.32	13.1	2.88	-0.12	-2.42	-1.02	-1.92	-4.12	-1.02	-2.62	-4.32	0.98	-2.32
O=C(NOC[C@H](O)CO)c1ccc(F)c(F)c1Nc1ccc(I)cc1F (top concentration 1000 nM)	4.34	1.14	-2.26	8.64	6.34	0.74	-3.76	-2.86	10.1	6.24	6.24	-3.56	8.84	-1.96	-4.16	7.54	-4.16	-4.16	-3.86	2.94
CC(C)C[C@H](NC(=O)[C@H](Cc1ccccc1)NC(=O)c1cnccn1)B(O)O [Bortezomib] (top concentration 1000 nM)	4.82	6.52	4.22	6.02	4.12	5.22	1.42	2.92	3.42	3.32	3.92	-3.38	1.52	2.22	2.52	1.82	4.72	4.92	2.72	2.32
O=C(c1ccc(F)c(F)c1Nc1ccc(I)cc1F)N1CC(O)([C@@H]2CCCCN2)C1 [Cobimetinib] (top concentration 1000 nM)	0.92	-3.58	-3.08	2.62	0.32	-3.68	-3.68	-3.68	2.12	-0.68	2.62	-3.68	5.22	-3.68	-1.88	2.62	-3.68	-3.68	-3.68	1.32
CO[C@@H](C)Cn1c(=O)n(C)c2cnc3ccc(-c4cncc(C(C)(C)O)c4)cc3c21 (top concentration 2500 nM)	4.88	8.48	4.18	3.18	1.98	2.18	2.08	-1.02	13.9	2.68	1.08	3.88	2.08	3.38	0.48	3.68	8.18	6.78	2.78	-1.22
C[C@H](Nc1ncnc2[nH]cnc12)c1cc2ccc(F)cc2nc1-c1ccccn1 [AMG319] (top concentration 1000 nM)	-1.42	-1.42	-1.42	-0.92	10.4	-1.42	-0.22	-1.42	6.38	-1.42	0.68	-1.42	-1.42	-1.42	-1.42	3.68	4.08	-1.02	-1.42	-1.42
CC[C@@H]1C(=O)N(C)c2cnc(Nc3ccc(C(=O)N[C@H]4CC[C@H](N5CCN(CC6CC6)CC5)CC4)cc3OC)nc2N1C(C)C [Volasertib] (top concentration 1000 nM)	16.1	13.8	12	11.2	5.8	15.5	19	8	12.4	13.4	0.9	0.4	13.4	11.3	12.3	11.9	13.1	12.8	20.8	10.1
COc1cc(OC)c(/C=C/S(=O)(=O)Cc2ccc(OC)c(NCC(=O)O)c2)c(OC)c1 [Rigosertib] (top concentration 10000 nM)	11.2	14.4	15.8	9.06	14.5	13.5	15.2	12	18.4	16.6	8.26	8.96	17.9	15.9	16.5	16.1	16.9	14	13.3	8.16
CCN(CC)CCCC(C)Nc1c2ccc(Cl)cc2nc2ccc(OC)cc12 (stereo not given) [Mepacrine] (top concentration 50000 nM)	0.2	-5	-0.4	-5.1	-3.5	-6.8	-0.8	0.6	0.1	-4	-8.4	-5.7	-0.7	-0.6	-10	-5.5	-0.3	-3.3	-7.1	-7.6
